# Measured values from patent US20240252657A1, “HEMTAC SMALL-MOLECULE DEGRADATION AGENT AND APPLICATION THEREOF” (SHANDONG UNIVERSITY, priority 2022, published 2024).
# Experiments:
# [1] = target: T1, CDK4 (Mus musculus, UniProt P30285); assay: Western blot, CDK4 degradation in B16F10 cells; assay type: cell-based; settings: read-out: DC50 (drug concentration leading to 50% protein degradation) of CDK4
# T1 construct: degradation of CDK4 and CDK6 in B16F10 cells; endogenous in cells; host or cells: B16F10
# T1 sequence (P30285 1-303): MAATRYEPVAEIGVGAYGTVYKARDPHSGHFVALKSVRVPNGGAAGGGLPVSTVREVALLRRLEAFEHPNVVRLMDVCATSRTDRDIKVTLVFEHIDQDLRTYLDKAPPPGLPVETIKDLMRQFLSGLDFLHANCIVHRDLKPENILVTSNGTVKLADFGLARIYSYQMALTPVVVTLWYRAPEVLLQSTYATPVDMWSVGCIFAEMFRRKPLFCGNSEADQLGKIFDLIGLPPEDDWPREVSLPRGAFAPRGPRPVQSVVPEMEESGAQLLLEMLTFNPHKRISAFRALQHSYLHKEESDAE
# Description: (§1) After B16F10 cells were treated with the compound at different concentrations and for different periods of time, the levels of CDK4 and CDK6 proteins in the cells were measured by Western blot. Firstly, intracellular proteins were extracted and quantified. The cells were lysed with RIPA cell lysate (with a protease inhibitor), and proteins were collected, which were quantified by a BCA protein quantitative determination kit and quantified to the same concentration. Protein denaturation: The proteins were placed in a water bath at 100° C. for 8 minutes to denature the proteins. Loading and gel electrophoresis: The loading amount per cell was generally 20 μL. […] Membrane transfer: The membrane transfer was carried out using a wet transfer instrument, at a constant current of 250 mA for 90 minutes. The PVDF membrane should be soaked with methanol beforehand. Blocking: The PVDF membrane was placed in BSA blocking buffer for 1 h (with slow shaking in a shaker). Incubation with primary antibody: The primary antibody was diluted according to the instructions. The primary antibody was added, followed by incubation overnight at 4° C. Membrane washing: The membrane was washed with TBST washing buffer for 3 times, each time for 10 minutes. Incubation with secondary antibody: The second antibody was added, followed by incubation in a shaker at room temperature for 1 h. […]
# [2] = target: T2, CDK6 (Mus musculus, UniProt Q64261); assay: Western blot, CDK6 degradation in B16F10 cells; assay type: cell-based; settings: read-out: DC50 (drug concentration leading to 50% protein degradation) of CDK6
# T2 construct: degradation of CDK4 and CDK6 in B16F10 cells; endogenous in cells; host or cells: B16F10
# Description: as §1
# [3] = test system: CDK4/6; assay: Western blot, CDK4/6 protein level in B16F10 cells; assay type: cell-based, mouse
# Description: as §1
# [4] = test system: mouse B16F10 melanoma; assay: Anti-tumor experiment in mice in vivo, B16F10 melanoma xenograft model
# Description: B16F10 cells (10^6 cells/mouse) were injected subcutaneously into the forelimb of C57BL/6 mice to establish an xenograft model of mouse B16F10 melanoma. When the tumor volume reached 100-200 mm^3, the mice were randomly divided into four groups (n=6). The compound was injected intraperitoneally every day for two weeks, and the body weights and tumor volumes of the mice were measured every two days. The tumor length and width were measured along two orthogonal axes with a vernier caliper, and the tumor volume in the mouse was calculated based on an equation V (mm^3)=(length×width^2)/2.
# T2 sequence (Q64261 whole entry): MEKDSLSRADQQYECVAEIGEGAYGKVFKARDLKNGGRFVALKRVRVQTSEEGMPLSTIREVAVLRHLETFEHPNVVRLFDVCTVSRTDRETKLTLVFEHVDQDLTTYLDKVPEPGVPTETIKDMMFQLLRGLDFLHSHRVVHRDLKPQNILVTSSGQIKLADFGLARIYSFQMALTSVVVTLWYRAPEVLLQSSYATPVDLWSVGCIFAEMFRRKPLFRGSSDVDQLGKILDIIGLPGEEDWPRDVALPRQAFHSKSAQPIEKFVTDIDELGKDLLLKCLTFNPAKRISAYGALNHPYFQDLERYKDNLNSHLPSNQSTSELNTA
compound,measurement,setting,value
COc1c(C)cnc(Cn2cc(C#CCCn3cc(CNC(=O)CN4CCN(c5ccc(Nc6ncc7c(C)c(C(C)=O)c(=O)n(C8CCCC8)c7n6)nc5)CC4)nn3)c3c(Cl)nc(N)nc32)c1C [Compound 26],DC50,[1],~26 nM
same,DC50,[2],~19 nM
same,time within which degradation of CDK4/6 was induced,"[3]; B16F10 cells, 0.5 μM",≤ 12 h
same,degradation activity (rank among the HEMTACs),"[3]; B16F10 melanoma cells, 24 h",highest degradation activity
same,anti-tumor effect compared with BIIB021 (20 mg/kg),"[4]; 20 mg/kg, intraperitoneally every day for two weeks",better than that of HSP90 inhibitor BIIB021
same,growth of melanoma,"[4]; 40 mg/kg, intraperitoneally every day for two weeks",significantly inhibit the growth of melanoma
same,other signs of toxicity,[4]; all treatment groups,no other signs of toxicity
same,body weight of mice,[4]; intraperitoneally every day for two weeks,slight weight loss
same,anti-melanoma effect in vivo,"[4]; mouse B16F10 melanoma model, FIG. 4 legend, no dose given",significant anti-melanoma effect
